According to ChEMBL document CHEMBL1145560, “Use of receptor chimeras to identify small molecules with high affinity for the dynorphin A binding domain of the kappa opioid receptor” (Bioorg Med Chem Lett, 2008):

Legend:
[1] = molecular target: Delta-type opioid receptor (Homo sapiens, UniProt P41143); test: Displacement of [3H]diprenorphine from human delta opioid receptor expressed in CHO-K1 cells; type: cell-based
Mu-type opioid receptor = Mu-type opioid receptor (Homo sapiens, UniProt P35372); test: Displacement of [3H]diprenorphine from human mu opioid receptor expressed in CHO-K1 cells; type: cell-based
Chain of Mu-type opioid receptor (P35372 whole entry): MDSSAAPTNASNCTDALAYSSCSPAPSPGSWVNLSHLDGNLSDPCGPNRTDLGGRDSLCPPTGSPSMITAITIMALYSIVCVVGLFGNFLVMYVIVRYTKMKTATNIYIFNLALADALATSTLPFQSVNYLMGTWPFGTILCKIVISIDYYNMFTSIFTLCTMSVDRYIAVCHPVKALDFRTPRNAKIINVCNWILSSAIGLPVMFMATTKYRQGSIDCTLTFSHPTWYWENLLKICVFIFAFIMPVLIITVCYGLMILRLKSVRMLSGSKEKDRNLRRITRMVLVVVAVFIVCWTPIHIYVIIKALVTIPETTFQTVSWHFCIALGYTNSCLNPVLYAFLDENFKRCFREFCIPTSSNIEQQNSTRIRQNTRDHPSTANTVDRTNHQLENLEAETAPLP

[2] = molecular target: T1, Kappa-type opioid receptor (Homo sapiens, UniProt P41145); test: Displacement of [3H]diprenorphine from human kappa opioid receptor expressed in CHO-K1 cells; type: cell-based
T1 sequence (P41145 whole entry): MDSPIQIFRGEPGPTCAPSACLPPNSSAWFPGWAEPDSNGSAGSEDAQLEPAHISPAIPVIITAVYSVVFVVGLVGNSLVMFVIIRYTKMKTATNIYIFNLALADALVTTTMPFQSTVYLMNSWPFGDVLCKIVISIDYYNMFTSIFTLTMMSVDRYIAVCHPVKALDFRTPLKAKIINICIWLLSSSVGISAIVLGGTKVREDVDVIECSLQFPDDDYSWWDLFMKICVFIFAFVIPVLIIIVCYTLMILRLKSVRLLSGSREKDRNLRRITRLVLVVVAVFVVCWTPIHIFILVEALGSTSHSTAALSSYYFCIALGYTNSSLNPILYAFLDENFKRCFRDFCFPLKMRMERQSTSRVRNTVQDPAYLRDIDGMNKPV

[3] = molecular target: T1, Kappa-type opioid receptor; test: Agonist activity at human kappa opioid receptor transfected in CHO cells by [35S]GTP-gamma-S binding assay; type: functional, cell-based
[4] = Displacement of [3H]diprenorphine from human kappa/mu opioid chimera 3 receptor
[5] = Displacement of [3H]diprenorphine from human kappa/mu opioid chimera 4 receptor

Chain of Delta-type opioid receptor (P41143 whole entry): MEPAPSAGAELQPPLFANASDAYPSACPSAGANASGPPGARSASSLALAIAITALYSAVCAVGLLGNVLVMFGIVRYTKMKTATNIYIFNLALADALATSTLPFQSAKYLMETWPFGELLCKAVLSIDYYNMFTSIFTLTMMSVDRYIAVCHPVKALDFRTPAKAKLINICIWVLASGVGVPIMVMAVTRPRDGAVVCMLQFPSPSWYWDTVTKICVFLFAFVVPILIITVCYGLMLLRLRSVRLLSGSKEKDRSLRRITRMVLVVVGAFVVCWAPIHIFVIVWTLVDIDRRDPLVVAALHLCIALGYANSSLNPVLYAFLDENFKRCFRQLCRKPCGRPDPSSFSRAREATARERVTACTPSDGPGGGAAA

| Structure (SMILES) | Ki [1] | Ki (Mu-type opioid receptor) | Ki [2] | EC50 [3] | Ki [4] | Ki [5] |
| --- | --- | --- | --- | --- | --- | --- |
| COc1cc(CC(=O)N(C)[C@H](CN2CC[C@H](O)C2)c2ccccc2)c(S(=O)(=O)N2CCN(C)CC2)cc1OC | 4.4 nM | 27 nM | 3.8 nM | 0.71 nM | – | – |
| COc1cc(CC(=O)N(C)[C@H](CN2CCCC2)c2ccccc2)c(S(=O)(=O)N(C)C)cc1OC | 56 nM | 42 nM | 0.5 nM | 0.26 nM | 3.2 nM | 2.5 nM |
| COc1cc(CC(=O)N(C)[C@H](CN2CC[C@H](O)C2)c2ccccc2)c(S(=O)(=O)N(C)C)cc1OC | 9.3 nM | 25 nM | 1.6 nM | 0.24 nM | 6.4 nM | 2.8 nM |
| CN(C(=O)Cc1cc2c(cc1S(=O)(=O)N(C)C)OCO2)[C@H](CN1CC[C@H](O)C1)c1ccccc1 | 6.2 nM | 34 nM | 0.54 nM | 0.11 nM | 4.5 nM | 0.5 nM |
| CN(C(=O)Cc1cc2c(cc1S(=O)(=O)N(C)Cc1ccccc1)OCO2)[C@H](CN1CCCC1)c1ccccc1 | 3.4 nM | 6.5 nM | 0.19 nM | 0.12 nM | 5.5 nM | 1.7 nM |
| COc1cc(CC(=O)N(C)[C@H](CN2CC[C@H](O)C2)c2ccccc2)c(S(=O)(=O)N2CCCC2)cc1OC | 0.85 nM | 5.9 nM | 1.1 nM | 0.12 nM | 38 nM | 8.3 nM |
| COc1cc(CC(=O)N(C)[C@H](CN2CCCC2)c2ccccc2)c(S(=O)(=O)N(C)Cc2ccccc2)cc1OC | 1.5 nM | 21 nM | 0.68 nM | 0.54 nM | 3.3 nM | 4.8 nM |
| CN(C(=O)Cc1cc2c(cc1S(=O)(=O)N(C)C)OCO2)[C@H](CN1CCCC1)c1ccccc1 | 110 nM | 47 nM | 0.22 nM | 0.1 nM | 5.2 nM | 0.71 nM |
| COc1cc(CC(=O)N(C)[C@H](CN2CCCC2)c2ccccc2)c(S(=O)(=O)N2CCOCC2)cc1OC | 9.4 nM | 15 nM | 0.55 nM | 0.17 nM | 1.3 nM | 2.2 nM |
| COc1cc(CC(=O)N(C)[C@H](CN2CCCC2)c2ccccc2)c(S(=O)(=O)N2CCCC2)cc1OC | 5.4 nM | 14 nM | 0.31 nM | 0.11 nM | 1.5 nM | 1.2 nM |
| COc1cc(CC(=O)N(C)[C@H](CN2CC[C@H](O)C2)c2ccccc2)c(S(=O)(=O)N2CCOCC2)cc1OC | 1.8 nM | 9 nM | 1.4 nM | 0.34 nM | – | – |
| COc1cc(CC(=O)N(C)[C@H](CN2CCCC2)c2ccccc2)c(S(=O)(=O)N2CCN(C)CC2)cc1OC | 23 nM | 52 nM | – | 0.39 nM | 4.8 nM | 6.8 nM |
| CC[C@H](C)[C@H](NC(=O)[C@H](CCCNC(=N)N)NC(=O)[C@H](CCCNC(=N)N)NC(=O)[C@H](CC(C)C)NC(=O)[C@H](Cc1ccccc1)NC(=O)CNC(=O)CNC(=O)[C@@H](N)Cc1ccc(O)cc1)C(=O)N[C@@H](CCCNC(=N)N)C(=O)N1CCC[C@H]1C(=O)N[C@@H](CCCCN)C(=O)N[C@@H](CC(C)C)C(=O)N[C@@H](CCCCN)C(=O)N[C@@H](Cc1c[nH]c2ccccc12)C(=O)N[C@@H](CC(=O)O)C(=O)N[C@@H](CC(N)=O)C(=O)N[C@@H](CCC(N)=O)C(=O)O [DYNORPHIN A (1-17)] | – | – | – | – | 0.31 nM | 0.18 nM |
